This is an account of results in US6995136B1, “Peptide fragments of murine epidermal growth factor as laminin receptor targets” (The Queen's University of Belfast, priority 1998, dated 2006).

The test system of assay [1] is angiogenesis in the chick. In words: Chick angiogenesis model. It is filed as in vivo. The conditions noted are these: chick.
The test system of assay [2] is Endothelial cells (SK HEP-1 and BRCE). Kind of assay: Migration assay (colloidal gold track area). It is filed as cell-based. The note with it: mammalian cell lines. As for the experimental part: The method used was basically as described by Albrecht-Buehler (1977). Briefly, coverslips (22×22 mm) were treated in 5% detergent (7×; ICN Biomedicals) and washed in alcohol to remove grease. After drying, they were immersed in gelatin solution (Sigma, 300 Bloom; 0.5 g in 300 ml distilled H2O) for 10 min. The coverslips were then dried by placing in a 70° C. oven for 45 min.
Colloidal gold suspension was prepared by adding 11 ml distilled H2O and 6 ml Na2CO3 (36.5 mM) to 1.8 ml AuHCl4 (14.5 mM). The mixture was heated to 95° C. at which point 1.8 ml of freshly prepared 0.1% formaldehyde solution was added; the temperature was maintained at 95° C. A suspension of colloidal gold was formed which was brown to absorbed light and blue to transmitted light.
The gold suspension, was then added to petri dishes containing individual coverslips and the plates incubated at 37° C. for 45 min. After washing with CFS (3×4 ml) to remove unattached gold particles, the coverslips were transferred to 6-well cluster dishes and UV sterilised.
Endothelial cells (SK HEP-1 and BRCE) in culture media (0.3 ml) were seeded onto the coverslips at an approximate density of 5×10^3 cells per well. The cells were allowed to plate down for 2 h at 37° C. after which the treatments were added. Assay systems were maintained for a further 18 h after which the cells were fixed using 3% gluteraldehyde in cacodylate buffer (pH 7.2).
The assays were examined using a Leica DM1RB phase contrast microscope and Q500MC image analysis system incorporating a JVC TK-1280E colour camera (Leica, Milton Keynes, UK). The track images of at least 30 cells were videocaptured and the area (representing migration response) determined for each. Statistical analysis of these areas was then carried out using Macintosh Instat software to perform both Kruskal-Wallis analysis of variance and Mann-Whitney U-tests in order to compare the treatment groups with controls.

Assay [3] deals with T1, 67 kDa laminin receptor (67-LR) (Homo sapiens, UniProt P08865).
T1 construct: endogenous in cells; host or cells: T47-D or SK HEP-1 cells (whole-cell suspension)
Kind of assay: 125I-laminin displacement (competition binding) on T47-D or SK HEP-1 cells. The note with it: relative to mEGF(33-42); 0.1 nM 125I-laminin, overnight 4° C. As for the experimental part: ^125I-laminin was prepared using ^125I-labelled sodium iodide (Amersham, UK) and immobilised chloramine-T (Iodobeads; Pierce, Ill.). Prior to use, the beads were washed with 500 μl phosphate buffer (pH 6.5) to remove excess reagent from the support. These were then allowed to air dry and individual beads added to a solution of carrier free Na^125I, diluted with iodination buffer (phosphate buffer pH 7.4). The beads were allowed to equilibrate for 5 min.
Laminin (10 μg in 10 μl) was then diluted into the iodination buffer and the system incubated at 20° C. for 15 min. The solution was then removed from the reaction vessel and excess Na^125I and unincorporated ^125I2 separated from the iodinated protein by gel filtration on a GF-5 exclusion column (Pierce, Ill.). Iodinated laminin fractions were recovered at a specific activity of approximately 1.2 mCi/mg protein (864 Ci/mmol).
Near confluent cultures of T47-D or SK HEP-1 cells were removed from monolayer with 0.02% EGTA and passed through a G-25 syringe needle to produce single cell suspensions. Aliquots of each cell type (10^6 cells/ml) were dispensed into separate Ependorf tubes (1 ml each) and pelleted. The cells were then resuspended in 1 ml ice-cold RPMI (SK HEP-1) or DMEM (T47-D) containing 0.1% BSA and either laminin or synthetic peptide at the concentrations indicated. Iodinated laminin was then added to each cell suspension to give a final ^125I-laminin concentration of 0.1 nM (approximately 50,000 cpm). These mixtures were incubated overnight at 4° C.
The tubes were then microfuged at 10,000 g and the supernatant removed. After washing the pellet with 500 μl CFS, the remaining radioactivity was determined using a gamma radiation counter. Non-specific binding was determined by incubating cells with a 1000-fold molar excess of unlabelled laminin. All estimations were carried out in triplicate.
IC50 (concentration of unlabelled peptide required to produce 50% inhibition of radioligand binding) and EC50 (effective concentration for 50% inhibition of cell attachment) values were calculated using the Grafit curve-fitting programme (Erithacus Software, London, UK).

The subject of a further assay is C57-BL/6J mice. Kind of assay: Murine model of proliferative retinopathy (retinopathy of prematurity, ROP). In kind it is in vivo, mouse. As for the experimental part:
Litters of 7 day old C57-BL/6J mice, together with their nursing dams, are exposed to 80% oxygen in an incubator maintained at 23° C. and with a gas exchange of 1.5 L/min for 5 days according to the protocol described by Stitt et al. (1998). On postnatal day 12 (P12) the animals are returned to room air and sacrificed at various times posthyperoxia. Animals are treated with daily i.p. injections of either laminin agonists (10 μg per head per day) or vehicle control. Groups of room air controls are maintained in parallel with hyperoxia-exposed animals. Home Office project and personal licenses are held for this work. All animals are housed and maintained in accordance with the ARVO regulations for animal care in research.
Animals are sacrificed at pre-determined key stages in the vaso-obliteration (P7–P12), ischaemia (P12 onwards) and vaso-proliferative responses (P 12–21). At sacrifice, terminally anaesthetised animals have a single eye enucleated and the retina removed to be snap-frozen for later RNA-extraction (see below). The fellow eye is either perfused with fluorescein dextran or enucleated and fixed in 4% paraformaldehyde for histology, immunohistochemistry and in situ hybridisation.

Assay [4] relates to angiogenesis in the chick. The note with it: already known in the field; cited from earlier work.
The next assay has as its system tumour cells. The note with it: already known in the field; cited from earlier work.
Setting [5] is: FIG. 1b versus 1a, 10 μg per head per day i.p.

Take “CDPGYIGSR [Lam.β-1(925-933), CDPGYIGSR-NH2, synthetic peptide of amino acids 925–933 of the laminin β-1 chain, 67LR agonist, reference compound]”: the “laminin agonist/antagonist character in chick” value in assay [1] is “partial laminin antagonist”. In assay [2], the “67LR agonist/antagonist character in mammalian cell lines” value was “pure agonist”. Moreover, the “67LR agonist/antagonist character in mammalian cell lines” value in assay [2] (listed as laminin β-1925-933) is recorded as “pure 67LR agonist”. The “receptor affinity, 125I-laminin displacement (IC50), in words” value in assay [3] was “equipotent”. For the same sequence, in the assay on C57-BL/6J mice (setting [5]), the “re-canalisation of areas of vaso-obliteration” value was “promotes re-canalisation of areas of vaso-obliteration” and the “uncontrolled angiogenic response of ROP” value is given as “prevents the uncontrolled angiogenic response of ROP”. Besides, in the assay on C57-BL/6J mice (neonates, daily intraperitoneal injections of 10 μg), the “development of ROP” value was “development of ROP can be prevented”. For the same sequence, in assay [4], the “angiogenesis in the chick” value is “inhibits angiogenesis in the chick”. Further, the “tumour establishment in mice” value in the assay with tumour cells is “inhibit tumour establishment in mice”.
